From ChEMBL document CHEMBL5390246, “Design, synthesis and SAR of novel 7-azaindole derivatives as potential Erk5 kinase inhibitor with anticancer activity” (Bioorg Med Chem, 2023) come the findings set out here.

In assay [1] the test system is A549. Kind of assay: Antiproliferative activity against human A549 cells assessed as cell growth inhibition rate at 20 ug/mL incubated for 48 hrs by MTT assay relative to control. The assay is classed as functional. Also noted: scale not given: the % may be the effect or the level left. To be noted: dose 20 µg/ml. Background: Tetrazolium assays rely on reduction of a dye to a coloured formazan, in cell work by metabolically active cells.

In assay [2] the test system is A549. Kind of assay: Antiproliferative activity against human A549 cells assessed as cell growth inhibition incubated for 48 hrs by MTT assay. The assay is classed as functional, cell-based. To be noted: A549, 48 h.
Assay [3] has as its system A549. Briefly: Antitumor activity against human A549 cells assessed as decrease in phosphorylation of Erk5 incubated for 48 hrs by Western blotting analysis. The assay is classed as functional, cell-based. To be noted: dose 2.5-10 µM. A general note: A western blot detects proteins with antibodies after separation by electrophoresis.
The subject of assay [4] is A549. Briefly: Induction of apoptosis in human A549 cells assessed as inhibition of colony formation incubated for 10 days by crystal violet staining based assay. The assay is classed as functional, cell-based. To be noted: dose 2.5-10 µM, time 10.0 day.
In assay [5] the test system is A549. Briefly: Induction of apoptosis in human A549 cells assessed as formation of apoptotic bodies at 2.5 to 10 uM incubated for 48 hrs by DAPI staining based fluorescence microscopic analysis. The assay is classed as functional, cell-based. To be noted: dose 2.5-10 µM.
The test system of assay [6] is A549. Kind of assay: Induction of apoptosis in human A549 cells assessed as irregular cell morphology at 2.5 to 10 uM incubated for 48 hrs by light microscopic analysis. To be noted: dose 2.5-10 µM. The assay is classed as functional, cell-based.
The subject of assay [7] is A549. Briefly: Induction of apoptosis in human A549 cells assessed as chromatin condensation at 2.5 to 10 uM incubated for 48 hrs by DAPI staining based fluorescence microscopic analysis. The assay is classed as functional, cell-based. To be noted: dose 2.5-10 µM.

The structures appear in SMILES notation. Values after ≈ are worked out from the molar mass of the structure shown. Active and inactive are the calls of the source. The rule behind the calls is not given here.

On to `O=C(c1ccc2ccccc2c1)N1CC=C(c2c[nH]c3ncccc23)CC1`, for which, in the assay on A549 [1], the Activity came to 62.25%.
Still for that read-out and setting: for `Brc1ccc(CN2CC=C(c3c[nH]c4ncccc34)CC2)cc1` the value was -25.78%.
Turning to `FC(F)(F)Oc1ccc(CN2CC=C(c3c[nH]c4ncccc34)CC2)cc1`, the Activity in the assay on A549 [1] worked out at 46.56%.
Still for that read-out and setting: next, `Clc1cccc(CN2CC=C(c3c[nH]c4ncccc34)CC2)c1`: 52.55%; `O=C(c1ccccc1)N1CC=C(c2c[nH]c3ncccc23)CC1`: 58.37%; `O=C(c1ccccc1Cl)N1CC=C(c2c[nH]c3ncccc23)CC1`: 52.62%.
As to `S=C(c1ccc(Cl)cc1)N1CC=C(c2c[nH]c3ncccc23)CC1`, the Activity in the assay with A549 [1] was 51.43%.
Turning to `FC(F)(F)c1ccc(CN2CC=C(c3c[nH]c4ncccc34)CC2)cc1`, the Activity with A549 [1] is reported as 44.64%.
Same read-out and setting: next, `Cc1ccc(CN2CC=C(c3c[nH]c4ncccc34)CC2)cc1`: 54.95%; `Fc1ccccc1CN1CC=C(c2c[nH]c3ncccc23)CC1`: 3.55%.
On the same count and under the same terms, next, `Clc1ccc(CN2CCC(c3c[nH]c4ncccc34)CC2)cc1Cl`: 32.22%.
As for `c1ccc2cc(CN3CCC(c4c[nH]c5ncccc45)CC3)ccc2c1`, the Activity in the assay on A549 [1] turned out to be 76.69%.
Same read-out and setting: next, `Clc1ccc(CN2CC=C(c3c[nH]c4ncccc34)CC2)cc1`: 0.74%.
For `Cc1ccc(C(=O)N2CC=C(c3c[nH]c4ncccc34)CC2)cc1`, the Activity in the assay with A549 [1] is listed as 41.24%.
The same measure, in the same setting: for `N#Cc1ccc(C(=O)N2CC=C(c3c[nH]c4ncccc34)CC2)cc1` the value was 21.45%.
Regarding `O=C(c1ccccc1F)N1CC=C(c2c[nH]c3ncccc23)CC1`, the half-inhibitory concentration (IC50) (usually the midpoint of a concentration-inhibition curve) with A549 [2] was 8.52 µg/mL (≈ 26.5 µM). Besides, the Activity in the assay on A549 [1] is on record as 75.54%.
For `Clc1ccc(CN2CC=C(c3c[nH]c4ncccc34)CC2)cc1Cl`, in that order: 7.33 µg/mL (≈ 20.5 µM) and 80.28%.
On to `O=C(c1ccc(Cl)cc1)N1CC=C(c2c[nH]c3ncccc23)CC1`, for which the Activity result is “Dose-Dependent Effect” in the assay on A549 [3], “Dose-Dependent Effect” with A549 [4] and 82.78% with A549 [1]. For the same molecule, the half-inhibitory concentration (IC50) with A549 [2] was found to be 6.23 µg/mL (≈ 18.4 µM). In addition, the outcome in the assay with A549 [5], in the assay on A549 [6] and in the assay on A549 [7] was Active.
On to `COc1ccc(C(=O)N2CC=C(c3c[nH]c4ncccc34)CC2)cc1`, for which the IC50 in the assay with A549 [2] came to 10.4 µg/mL (≈ 31.3 µM). Moreover, the Activity in the assay on A549 [1] stood at 70.89%.
The like results for `O=C(c1cccc(Cl)c1)N1CC=C(c2c[nH]c3ncccc23)CC1` were, in that order, 10.3 µg/mL (≈ 30.6 µM) and 73.66%.
For `Nc1ccc(C(=O)N2CC=C(c3c[nH]c4ncccc34)CC2)cc1`, the Activity in the assay with A549 [1] worked out at 45.12%.
Same read-out and setting: for `O=C(c1ccc([N+](=O)[O-])cc1)N1CC=C(c2c[nH]c3ncccc23)CC1` the value was 69.77%.
On the same count and under the same terms, for `Fc1ccccc1C(=S)N1CC=C(c2c[nH]c3ncccc23)CC1` the value was 65.92%; for `C1=C(c2c[nH]c3ncccc23)CCN(Cc2ccccc2)C1`, 44.74%.
With `C1=C(c2c[nH]c3ncccc23)CCN(Cc2ccc3ccccc3c2)C1`, the Activity result is “Dose-Dependent Effect” in the assay on A549 [3], “Dose-Dependent Effect” in the assay with A549 [4] and 90.08% in the assay on A549 [1]. Moreover, in the assay with A549 [2], the half-maximal inhibitory concentration (IC50) was found to be 4.56 µg/mL (≈ 13.4 µM). For the same molecule, the result in the assay on A549 [5], in the assay on A549 [6] and in the assay on A549 [7] was Active.
Consider `C1=C(c2c[nH]c3ccccc23)CCN(Cc2ccc3ccccc3c2)C1`, for which the Activity in the assay with A549 [1] is 70.17%.
For `O=C(c1ccc(Cl)cc1)N1CCC(c2c[nH]c3ncccc23)CC1`, the Activity in the assay on A549 [1] is listed as 50.17%.
Same read-out and setting: for `O=[N+]([O-])c1ccc(CN2CC=C(c3c[nH]c4ncccc34)CC2)cc1` the value was 16.85%.
Turning to `O=C(c1ccc(Cl)cc1)N1CC=C(c2c[nH]c3ccccc23)CC1`, the Activity with A549 [1] is 67.52%.
Turning to `O=C(c1ccc(F)cc1)N1CC=C(c2c[nH]c3ncccc23)CC1`, in the assay with A549 [1], the Activity is reported as 59.94%.
For the molecule `Clc1ccc(CN2CC=C(c3c[nH]c4ccccc34)CC2)cc1Cl`, in the assay on A549 [1], the Activity is 56.41%.
`O=C(c1ccc(Br)cc1)N1CC=C(c2c[nH]c3ncccc23)CC1`: the IC50 in the assay with A549 [2] was found to be 11 µg/mL (≈ 28.7 µM). Besides, the Activity in the assay with A549 [1] turned out to be 71.11%.
`Fc1ccc(CN2CC=C(c3c[nH]c4ncccc34)CC2)cc1`: in the assay with A549 [1], the Activity was 43.89%.
Still for that read-out and setting: for `O=C(c1ccccc1F)N1CC=C(c2c[nH]c3ccccc23)CC1` the value was 50.26%; for `COc1ccc(CN2CC=C(c3c[nH]c4ncccc34)CC2)cc1`, -3.33%.
Same read-out and setting: next, `N#Cc1ccc(CN2CC=C(c3c[nH]c4ncccc34)CC2)cc1`: 9.76%.
The same measure, in the same setting: next, `O=C(c1ccccc1F)N1CCC(c2c[nH]c3ncccc23)CC1`: 48.02%.
Turning to `Clc1ccccc1CN1CC=C(c2c[nH]c3ncccc23)CC1`, in the assay on A549 [2], the IC50 is 12 µg/mL (≈ 37 µM). For the same molecule, the Activity in the assay with A549 [1] is 84.18%.
`O=C(c1ccc(Cl)c(Cl)c1)N1CC=C(c2c[nH]c3ncccc23)CC1`: the Activity in the assay with A549 [1] is reported as 66.12%.
Still for that read-out and setting: for `O=C(c1ccc(C(F)(F)F)cc1)N1CC=C(c2c[nH]c3ncccc23)CC1` the value was 65.74%.
